Values of other authors in patent US20100047176A1, “Method and Kit for Testing Stress Effects in Living Organisms” (AARHUS UNIVERSITET, priority 2007, published 2010).
Converted amounts (≈) assume the structure as drawn.

Experiments:
[1] = at 25° C.
[2] = tested on: fish and aquatic invertebrates; conditions: if it reaches water bodies

SMILES | water solubility [1] | toxicity to fish / aquatic invertebrates [2]
O=C(O)CNCP(=O)(O)O [Glyphosate] | 11.6 mg/mL (≈ 68.6 mM) | –
CCC(CC)Nc1c([N+](=O)[O-])cc(C)c(C)c1[N+](=O)[O-] [Pendimethalin] | – | toxic to fish
